Measurements published in paper PMC11580958 (bioRxiv, 2024).
Residues, ends and D or L forms follow the SMILES beside them. *: point of attachment. Cbz = O=C(OCc1ccccc1)*

Key:
BMDCs = assay: […] antigen presentation on DCs; assay type: cell-based, C57BL/6 mouse; details: CpG adjuvant, treatment 12-24 h, flow cytometry
CRBN protein = CRBN protein (Homo sapiens, UniProt Q96SW2); assay: Nano ITC measurement of PROTAV-CRBN binding; details: data did not fit the binding model
Chain of CRBN protein (Q96SW2 whole entry, species assumed): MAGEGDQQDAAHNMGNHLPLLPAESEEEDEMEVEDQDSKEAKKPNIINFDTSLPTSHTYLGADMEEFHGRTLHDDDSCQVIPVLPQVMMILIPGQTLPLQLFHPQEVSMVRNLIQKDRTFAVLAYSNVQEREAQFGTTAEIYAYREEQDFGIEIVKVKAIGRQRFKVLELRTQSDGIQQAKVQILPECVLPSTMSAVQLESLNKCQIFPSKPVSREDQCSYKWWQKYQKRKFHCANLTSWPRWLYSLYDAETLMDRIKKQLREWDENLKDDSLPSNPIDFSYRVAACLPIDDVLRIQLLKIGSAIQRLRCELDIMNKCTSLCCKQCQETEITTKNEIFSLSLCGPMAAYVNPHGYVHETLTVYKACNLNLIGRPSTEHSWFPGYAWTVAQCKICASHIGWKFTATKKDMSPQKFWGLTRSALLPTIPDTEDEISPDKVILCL

Molecule	H-2Kb/SIINFEKL presentation on DCs (in words) (BMDCs)	Binding to CRBN (in words) (CRBN protein)
CC(C)C[C@@H](C=O)NC(=O)[C@H](CC(C)C)NC(=O)[C@H](CC(C)C)NC(=O)OCc1ccccc1 [MG132] (Cbz-Leu-Leu-Leu-aldehyde)	reduced the level of SIINFEKL presentation on DCs	–
chicken ovalbumin (protein) MGSIGAASMEFCFDVFKELKVHHANENIFYCPIAIMSALAMVYLGAKDSTRTQINKVVRFDKLPGFGDSIEAQCGTSVNVHSSLRDILNQITKPNDVYSFSLASRLYAEERYPILPEYLQCVKELYRGGLEPINFQTAADQARELINSWVESQTNGIIRNVLQPSSVDSQTAMVLVNAIVFKGLWEKAFKDEDTQAMPFRVTEQESKPVQMMYQIGLFRVASMASEKMKILELPFASGTMSMLVLLPDEVSGLEQLESIINFEKLTEWTSSNVMEERKIKVYLPRMKMEEKYNLTSVLMAMGITDVFSSSANLSGISSAESLKISQAVHAAHAEINEAGREVVGSAEAGVDAASVSEEFRADHPFLFCIKHIATNAVLFFGRCVSP	–	negligible binding
